Test results published in the NIST ThermoML archive (doi:10.1016/j.tca.2006.12.010).

Legend:
[1] = 101.33 kPa, Resistive pulse heating
[2] = Molar enthalpy of transition or fusion; settings: Crystal; Resistive pulse heating

[V] [vanadium]
thermal conductivity [W/m/K], [1]
Settings	Crystal	Liquid
2199 K	41.35	39.08
2250 K	–	39.8
2300 K	–	40.49
2350 K	–	41.17
2400 K	–	41.82
2450 K	–	42.46
2500 K	–	43.08
2550 K	–	43.68
2600 K	–	44.26
2650 K	–	44.83
2700 K	–	45.37
2750 K	–	45.91
2800 K	–	46.42
2850 K	–	46.91
2900 K	–	47.39

Settings	Molar enthalpy of transition or fusion [kcal/mol]
[2]	4.94
